Data from US9267945B2, “Diagnosis of multiple sclerosis” (Yeda Research and Development Co. Ltd., priority 2008, dated 2016).

Key:
EAE in C57BL/6 mice = assay: EAE induced with MOG35-55; assay type: in vivo
Method: EAE was induced in C57BL/6 mice with MOG35-55, and 15-ketocholestene, 15-ketocholestane and 15α-hydroxycholestene were administered at days 0, 4, 7 and 10 after EAE induction (10 μg/mice). AIQ was administered intraperitoneally (60 μg/mice) on daily basis. The course of EAE in these mice is shown as the mean EAE score+s.e.m. (MOG35-55 n=22, MOG35-55+oxChol n=24, MOG35-55+oxChol+AIQ n=18).
Spinal cords were taken on day 19 and stained with hematoxylin and eosin, luxol fast blue or silver stain to quantify the cellular infiltrate, demyelination and axonal loss, respectively. Each column represents the mean±SEM resulting from the analysis of at least 8 sections. Administration of oxChol enhanced EAE as measured clinically (FIG. 4A, P<0.0001, two-way ANOVA), and augmented inflammatory infiltrates (FIG. 4B; P<0.05, one-way ANOVA), demyelination (FIG. 4C; P<0.01, one-way ANOVA) and axonal loss (FIG. 4D; P<0.001, one-way ANOVA); these effects were inhibited by treatment with AIQ (P<0.001, one-way ANOVA).

[1] = test system: T cell responses to MOG35-55; assay: T cell responses to MOG35-55 in EAE mice; assay type: cell-based; details: EAE mice given oxChol and AIQ
Method: Further investigations were performed to determine whether the effect of oxChol on EAE was mediated by PARP.

[2] = test system: IgG reactivity to PLP261-277; assay: Inhibition of RRMS serum IgG reactivity on antigen microarray by pre-incubation with free peptide; assay type: binding, human; details: RRMS sera 1:10 dilution, excess unbound peptide, FIG. 1C
Method: RRMS or healthy controls (HC) serum samples were hybridized on antigen microarrays at different concentrations and the mean IgG (FIG. 1A) and IgM (FIG. 1B) reactivity to the CNS, HSP or lipid antigens spotted on the microarrays were measured. Results are presented as mean±SEM of the IgG or IgM reactivity for CNS, HSP or lipid antigens at each dilution. *P<0.05, **P<0.01 and ***P<0.001 (two-way ANOVA) when compared to HC samples tested at the same dilution.
The chips were washed with PBS, blocked for 1 h at 37° C. with 1% BSA, and incubated for 2 hours at 37° C. with a 1:10 dilution of the test serum in blocking buffer under a coverslip in a humid environment. The arrays were then washed and incubated for 45 min at 37° C. with a 1:500 dilution mixture of goat anti-human IgG Cy3-conjugated antibody and a goat anti-human IgM conjugated to Cy5, (both purchased from Jackson ImmunoResearch, West Grove, Pa. The arrays were scanned with a ScanArray 4000× scanner (GSI Luminomics, Billerica, Mass., USA) and the IgM and IgG results were recorded separately. The results were recorded as TIFF files.

| Compound | inflammatory infiltrates in spinal cord (EAE in C57BL/6 mice; day 19, hematoxylin and eosin, FIG. 4B) | demyelination in spinal cord (EAE in C57BL/6 mice; day 19, luxol fast blue, FIG. 4C) | axonal loss in spinal cord (EAE in C57BL/6 mice; day 19, silver stain, FIG. 4D) | EAE measured clinically (mean EAE score) (EAE in C57BL/6 mice; oxChol 10 μg/mice days 0, 4, 7, 10, AIQ 60 μg/mice i.p. daily, FIG. 4A, P<0.0001) | T cell responses to MOG35-55 as measured by cytokines (IFN-γ and IL-17) or proliferation [1] | reactivity to PLP261-277 on the antigen array after pre-incubation of the serum with peptide [2] |
| --- | --- | --- | --- | --- | --- | --- |
| Nc1cccc2c(=O)[nH]ccc12 [AIQ, 5-Aminoisoquinolinone] | inhibited | inhibited | inhibited | abrogated the worsening of EAE | did not affect |  |
| PLP261-277: proteolipid protein peptide 261-277, used unbound as competitor (ATYNFAVLKLMGRGTKF) |  |  |  |  |  | inhibited |
